Consider eight molecules from US5441947A, “Methods of inhibiting vascular restenosis” (Eli Lilly and Company, priority 1993, dated 1995).

This assay relates to smooth muscle cell chemotaxis. In words: smooth muscle cell chemotaxis (96 well chemotaxis chamber, PDGF-BB as inducer). Format: cell-based. To be noted: four hours; for Degree of Cell Migration: absorbance; for IC50: 4 h, PDGF-BB 10 ng/ml as inducer, 37° C., read-out: half maximal inhibiting concentrations (IC50) to inhibit smooth muscle cell chemotaxis. As for the experimental part: Compounds of the invention were tested for impact on smooth muscle cell chemotaxis using a model AB96 Neuro Probe® 96 well chemotaxis chaser. […] This chamber is available from Neuro Probe, Inc., P.O. Box 400, Cabin John, Md.
The chamber consists of a top plate, a bottom plate, a gasket and a polyvinyl pyrrolidone-free polycarbonate filter. […] The 8 μm pore filter is soaked in 0.5N acetic acid overnight and coated with collagen at 100 μg/ml in 0.1N acetic acid for 2 days. The filter is then dried in a hood. The filter is then installed on the bottom plate, followed by the gasket. The top plate is then placed on the gasket, forming the top wells. In the top wells, smooth muscle cells are placed with the compounds to be tested at specified concentrations in around 225 μl volume. The smooth muscle cells are plated at a density of 0.5×10^6 cells/mi. The chamber is incubated at 37° C., 5% CO2 for four hours, and at the end of this time the upper well-cells are scraped off. The lower well cells are fixed, stained, and the absorbance is read.

Where [1] appears, read: 0.1 μm compound, PDGF-BB 10 ng/ml.
[2] abbreviates: 10 μm compound, PDGF-BB 10 ng/ml.
The mark [3] stands for this setting: 0.03 μM compound, PDGF-BB 10 ng/ml.
Where [4] appears, read: 0.3 μm compound, PDGF-BB 10 ng/ml.

Where “and” joins values, the source holds several entries; their conditions need not be identical. Equal values may be shown once.

Regarding `COc1cc2c(c(OC)c1OC)-c1ccc(OC)c(=O)cc1[C@@H](NC(C)=O)CC2` [Colchicine, reference compound], the “Degree of Cell Migration” value (1 μm compound, PDGF-BB 10 ng/ml) is listed as 0.000.
`COC[C@H]1OC(=O)c2coc3c2[C@@]1(C)C1=CC[C@]2(C)C(=O)CC[C@H]2C1C3=O` (stereo partly drawn) [II, Δ9,11-dehydrodesacetoxywortmannin]: the IC50 stood at 200 nM.
Consider `COCC1OC(=O)c2coc3c2C1(C)C1=C(C3=O)C2CCC(O)C2(C)CC1OC(C)=O` (stereo not drawn) [IIIA, 17α-Dihydrowortmannin], for which the IC50 is 20 nM. Under “0.01 μm compound, PDGF-BB 10 ng/ml”, the “Degree of Cell Migration” value came to 0.033. Also, under setting [1], the “Degree of Cell Migration” value is -0.010.
Take `Cc1c2c(c(O)c3occ(C(=O)O)c13)[C@@H]1CCC(=O)[C@@]1(C)C=C2` [IVa, opened A-ring acid of wortmannin]: the IC50 is above 10000 nM. The “Degree of Cell Migration” value under setting [2] is given as 0.04.
Consider `COC(=O)c1coc2c(O)c3c(c(C)c12)C=C[C@]1(C)C(=O)CC[C@@H]31` [IVb, opened A-ring methyl ester of wortmannin], for which the IC50 amounted to 10000 nM. Moreover, the “Degree of Cell Migration” value under setting [2] is listed as 0.026.
Consider `COCC1OC(=O)c2coc3c2C1(C)C1=C(C3=O)C2CCC(=O)C2(C)CC1OC(C)=O` (stereo not drawn) [Ia, wortmannin], for which the IC50 is 30 nM. Under setting [3], the “Degree of Cell Migration” value is listed as 0.020. The “Degree of Cell Migration” value under setting [1] stood at 0.006. In addition, the “Degree of Cell Migration” value under setting [4] is recorded as -0.001.
Consider `COC[C@H]1OC(=O)c2coc3c2[C@@]1(C)C1=C(C3=O)[C@@H]2CCC(=O)[C@@]2(C)CC1` [Ib, 11-desacetoxywortmannin], for which the IC50 stood at 200 nM. Also, the “Degree of Cell Migration” value under setting [3] was 0.044 and 0.036. In addition, under setting [1], the “Degree of Cell Migration” value was 0.040 and 0.028. Under setting [4], the “Degree of Cell Migration” value is reported as 0.015.

B1: PDGF: PDGF-BB at 10 ng/ml as an inducer, or chemoattractant (protein, UniProt P01127 82-190, looked up)
Platelet-derived growth …: SLGSLTIAEPAMIAECKTRTEVFEISRRLIDRTNANFLVWPPCVEVQRCSGCCNNRNVQCRPTQVQLRPVQVRKIEIVRKKPIFKKATVTLEDHLACKCETVAAARPVT
As to B1, the “Degree of Cell Migration” value (PDGF 10 ng/ml alone (inducer control)) is 0.046.
